Assays:
[1] = target: T1, Sodium-dependent serotonin transporter (Homo sapiens, UniProt P31645)
Description: Binding affinity to SERT (unknown origin)

[2] = target: T2, Sodium-dependent dopamine transporter (Homo sapiens, UniProt Q01959)
Description: Binding affinity to DAT (unknown origin)

[3] = target: T3, Sodium-dependent noradrenaline transporter (Homo sapiens, UniProt P23975)
Description: Binding affinity to NET (unknown origin)

[4] = target: T1, Sodium-dependent serotonin transporter; test: Inhibition of human SERT expressed in HEK cells assessed as reduction of [3H]5-HT uptake preincubated for 10 mins followed by [3H]5-HT addition measured after 10 mins by scintillation counting method; format: cell-based
[5] = target: T2, Sodium-dependent dopamine transporter; test: Inhibition of human DAT expressed in HEK cells assessed as reduction of [3H]-DA uptake preincubated for 10 mins followed by […] measured after 10 mins by scintillation counting method; format: cell-based
[6] = target: T3, Sodium-dependent noradrenaline transporter; test: Inhibition of human NET expressed in HEK cells assessed as reduction of [3H]-NE uptake preincubated for 10 mins followed by […] measured after 10 mins by scintillation counting method; format: cell-based
[7] = target: T2, Sodium-dependent dopamine transporter; test: Binding affinity to human DAT
[8] = target: T3, Sodium-dependent noradrenaline transporter; test: Binding affinity to human NET
[9] = target: T1, Sodium-dependent serotonin transporter; test: Binding affinity to human SERT
[10] = Tmax in human plasma at 30 mg administered qd for 3 days followed by 60 mg administration at qd for next 11 days measured on day 14 post last dose by LC-MS/MS analysis; format: ADME, organism-based
[11] = target: T1, Sodium-dependent serotonin transporter; test: Inhibition of SERT (unknown origin)-mediated uptake
[12] = target: T2, Sodium-dependent dopamine transporter; test: Inhibition of DAT (unknown origin)-mediated uptake
[13] = Ratio of drug level in human brain to plasma at 30 mg administered qd for 3 days followed by 60 mg administration at qd for next 11 days measured on day 14 post last dose by LC-MS/MS analysis; format: ADME; details: read-out: BPR
[14] = Half life in human cerebrospinal fluid at 30 mg administered qd for 3 days followed by 60 mg administration at qd for next 11 days measured on day 14 post last dose by LC-MS/MS analysis; format: ADME, tissue-based
[15] = tested on: Mus musculus; test: In vivo receptor occupancy at NET in mouse at 0.3 mg/kg; format: functional
[16] = tested on: Mus musculus; test: In vivo receptor occupancy at SERT in mouse at 0.3 mg/kg; format: functional
[17] = tested on: Mus musculus; test: Antidepressant activity in TST mouse model assessed as reduction in immobility time at 0.3 mg/kg, po relative to control; format: functional
[18] = tested on: Homo sapiens; test: In vivo receptor occupancy at SERT in human at 0.5 mg, po administered on day 1 measured on day 14 by [11C]-DASB -based PET imaging analysis; format: functional
[19] = tested on: Mus musculus; test: In vivo receptor occupancy at DAT in mouse at 0.3 mg/kg; format: functional
[20] = Tmax in human at 0.025 to 5 mg, po by LC-MS/MS analysis; format: ADME, organism-based; details: in vivo
[21] = tested on: Homo sapiens; test: In vivo receptor occupancy at DAT in human at 3 mg, po administered on day 1 measured on day 14 by […]-based PET imaging analysis; format: functional
[22] = Half life in human at 0.025 to 5 mg, po by LC-MS/MS analysis; format: ADME, organism-based; details: in vivo
[23] = tested on: Homo sapiens; test: In vivo receptor occupancy at SERT in human at 3 mg, po administered on day 1 measured on day 14 by [11C]-DASB -based PET imaging analysis; format: functional
[24] = target: T2, Sodium-dependent dopamine transporter; test: Binding affinity to human DAT expressed in HEK293 cells after 60 mins in presence of […] by liquid scintillation counting; format: cell-based
[25] = target: T1, Sodium-dependent serotonin transporter; test: biochemical; format: cell-based, HEK293
Description: Binding affinity to human SERT expressed in HEK293 cells after 60 mins in presence of [3H]imipramine by liquid scintillation counting

[26] = target: T3, Sodium-dependent noradrenaline transporter; test: Binding affinity to human NET expressed in HEK293 cells after 60 mins in presence of [3H]imipramine by liquid scintillation counting; format: cell-based
[27] = target: Sodium-dependent serotonin transporter (Rattus norvegicus, UniProt P31652); test: Inhibition of rat brain SERT assessed as reduction of [3H]5-HT re-uptake preincubated for 30 mins followed by [3H]5-HT addition measured after 5 mins by scintillation counting
Sodium-dependent serotonin transporter (Rattus norvegicus, UniProt P31652), sequence (P31652 whole entry): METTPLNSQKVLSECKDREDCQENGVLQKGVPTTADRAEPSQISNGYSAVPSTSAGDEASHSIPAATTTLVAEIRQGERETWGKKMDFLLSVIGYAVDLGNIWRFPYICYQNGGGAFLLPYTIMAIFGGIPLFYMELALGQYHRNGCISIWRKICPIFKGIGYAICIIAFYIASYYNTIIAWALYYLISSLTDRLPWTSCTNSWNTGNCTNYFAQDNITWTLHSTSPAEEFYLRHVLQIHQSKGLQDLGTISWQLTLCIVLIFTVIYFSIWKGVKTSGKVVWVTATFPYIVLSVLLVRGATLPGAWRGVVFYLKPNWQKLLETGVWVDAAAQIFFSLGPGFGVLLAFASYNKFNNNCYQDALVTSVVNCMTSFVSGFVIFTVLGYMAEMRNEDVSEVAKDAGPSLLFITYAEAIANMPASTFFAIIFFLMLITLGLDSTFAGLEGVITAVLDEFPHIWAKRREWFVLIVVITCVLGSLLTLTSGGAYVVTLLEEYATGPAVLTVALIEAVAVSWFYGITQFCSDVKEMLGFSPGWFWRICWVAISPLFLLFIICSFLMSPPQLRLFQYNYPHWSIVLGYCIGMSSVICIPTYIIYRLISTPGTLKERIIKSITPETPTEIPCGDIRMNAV

[28] = target: Norepinephrine transporter (Rattus norvegicus, UniProt Q9WTR4); test: Inhibition of rat brain NET assessed as reduction of [3H]-NE re-uptake preincubated for 30 mins followed by [3H]-NE addition measured after 5 mins by scintillation counting
Norepinephrine transporter, sequence (Q9WTR4 whole entry): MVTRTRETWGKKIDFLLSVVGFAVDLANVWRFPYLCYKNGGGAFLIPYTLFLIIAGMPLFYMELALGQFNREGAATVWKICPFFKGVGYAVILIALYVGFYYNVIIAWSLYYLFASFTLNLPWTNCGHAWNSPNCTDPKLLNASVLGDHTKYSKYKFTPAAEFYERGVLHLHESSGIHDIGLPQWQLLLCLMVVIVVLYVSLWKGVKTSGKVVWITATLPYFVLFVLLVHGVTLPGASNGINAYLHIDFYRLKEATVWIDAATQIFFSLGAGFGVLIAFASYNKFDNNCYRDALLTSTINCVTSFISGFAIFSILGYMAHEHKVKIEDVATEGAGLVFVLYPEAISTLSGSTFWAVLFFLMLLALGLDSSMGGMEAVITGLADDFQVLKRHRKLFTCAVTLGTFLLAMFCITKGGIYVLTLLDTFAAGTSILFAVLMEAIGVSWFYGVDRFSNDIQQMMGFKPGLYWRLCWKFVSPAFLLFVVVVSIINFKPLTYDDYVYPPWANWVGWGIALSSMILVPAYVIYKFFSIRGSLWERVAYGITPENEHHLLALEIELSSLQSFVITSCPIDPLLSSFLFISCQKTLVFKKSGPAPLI

[29] = target: Sodium-dependent dopamine transporter (Rattus norvegicus, UniProt P23977); test: Inhibition of rat brain DAT assessed as reduction of [3H]-DA re-uptake preincubated for 30 mins followed by [3H]-DA addition measured after 5 mins by scintillation counting
Sodium-dependent dopamine transporter (Rattus norvegicus, UniProt P23977), sequence (P23977 whole entry): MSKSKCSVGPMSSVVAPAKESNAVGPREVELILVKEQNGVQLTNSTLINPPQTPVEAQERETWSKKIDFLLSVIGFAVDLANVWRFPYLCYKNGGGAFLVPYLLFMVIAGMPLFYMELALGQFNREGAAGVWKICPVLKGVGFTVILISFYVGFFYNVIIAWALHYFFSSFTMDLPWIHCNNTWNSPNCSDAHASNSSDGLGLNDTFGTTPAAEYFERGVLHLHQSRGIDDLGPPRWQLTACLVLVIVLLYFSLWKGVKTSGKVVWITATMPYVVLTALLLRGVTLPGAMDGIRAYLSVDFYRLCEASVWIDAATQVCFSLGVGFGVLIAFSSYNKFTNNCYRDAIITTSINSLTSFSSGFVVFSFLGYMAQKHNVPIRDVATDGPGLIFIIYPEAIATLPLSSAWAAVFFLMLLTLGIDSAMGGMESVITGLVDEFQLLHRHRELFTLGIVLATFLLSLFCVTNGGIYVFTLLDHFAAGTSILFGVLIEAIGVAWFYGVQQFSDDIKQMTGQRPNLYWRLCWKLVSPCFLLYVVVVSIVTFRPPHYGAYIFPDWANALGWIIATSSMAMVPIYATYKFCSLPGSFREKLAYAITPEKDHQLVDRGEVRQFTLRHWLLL

[30] = target: T2, Sodium-dependent dopamine transporter; test: Inhibition of human DAT expressed in CHO cells assessed as reduction of [3H]-DA re-uptake preincubated for 10 mins followed by [3H]-DA addition measured after 10 mins by liquid scintillation counting; format: cell-based
[31] = target: T1, Sodium-dependent serotonin transporter; test: Inhibition of human SERT expressed in CHO cells assessed as reduction of [3H]-5-HT re-uptake preincubated for 10 mins followed by [3H]-5-HT addition measured after 10 mins by liquid scintillation counting; format: cell-based
[32] = target: T3, Sodium-dependent noradrenaline transporter; test: Inhibition of human NET expressed in CHO cells assessed as reduction of [3H]-NE re-uptake preincubated for 10 mins followed by [3H]-NE addition measured after 10 mins by liquid scintillation counting; format: cell-based
[33] = tested on: Homo sapiens; test: In vivo receptor occupancy at DAT in human at 2 mg/day by PET imaging method; format: functional
[34] = tested on: Homo sapiens; test: In vivo receptor occupancy at SERT in human at 2 mg/day by PET imaging method; format: functional
[35] = tested on: Homo sapiens; test: In vivo receptor occupancy at SERT in human at 1 mg/day by PET imaging method; format: functional
[36] = tested on: Homo sapiens; test: In vivo receptor occupancy at DAT in human at 1 mg/day by PET imaging method; format: functional

T2 sequence (Q01959 whole entry): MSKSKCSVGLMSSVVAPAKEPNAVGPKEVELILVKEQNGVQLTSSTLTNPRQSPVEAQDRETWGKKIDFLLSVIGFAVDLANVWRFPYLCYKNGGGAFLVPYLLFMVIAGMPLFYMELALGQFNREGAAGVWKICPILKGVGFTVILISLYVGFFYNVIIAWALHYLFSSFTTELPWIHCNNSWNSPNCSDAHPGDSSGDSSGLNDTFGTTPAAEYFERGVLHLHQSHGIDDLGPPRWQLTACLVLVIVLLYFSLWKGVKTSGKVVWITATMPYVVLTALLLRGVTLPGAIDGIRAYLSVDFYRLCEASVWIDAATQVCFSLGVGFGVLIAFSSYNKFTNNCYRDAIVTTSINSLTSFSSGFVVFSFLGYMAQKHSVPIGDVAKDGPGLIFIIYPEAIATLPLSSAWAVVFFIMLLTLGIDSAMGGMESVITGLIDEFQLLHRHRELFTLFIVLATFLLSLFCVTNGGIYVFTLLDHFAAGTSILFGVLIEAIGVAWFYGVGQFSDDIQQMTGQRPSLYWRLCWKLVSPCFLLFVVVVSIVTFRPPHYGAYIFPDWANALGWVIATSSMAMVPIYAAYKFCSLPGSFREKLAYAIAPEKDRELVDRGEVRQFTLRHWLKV
T3 sequence (P23975 whole entry): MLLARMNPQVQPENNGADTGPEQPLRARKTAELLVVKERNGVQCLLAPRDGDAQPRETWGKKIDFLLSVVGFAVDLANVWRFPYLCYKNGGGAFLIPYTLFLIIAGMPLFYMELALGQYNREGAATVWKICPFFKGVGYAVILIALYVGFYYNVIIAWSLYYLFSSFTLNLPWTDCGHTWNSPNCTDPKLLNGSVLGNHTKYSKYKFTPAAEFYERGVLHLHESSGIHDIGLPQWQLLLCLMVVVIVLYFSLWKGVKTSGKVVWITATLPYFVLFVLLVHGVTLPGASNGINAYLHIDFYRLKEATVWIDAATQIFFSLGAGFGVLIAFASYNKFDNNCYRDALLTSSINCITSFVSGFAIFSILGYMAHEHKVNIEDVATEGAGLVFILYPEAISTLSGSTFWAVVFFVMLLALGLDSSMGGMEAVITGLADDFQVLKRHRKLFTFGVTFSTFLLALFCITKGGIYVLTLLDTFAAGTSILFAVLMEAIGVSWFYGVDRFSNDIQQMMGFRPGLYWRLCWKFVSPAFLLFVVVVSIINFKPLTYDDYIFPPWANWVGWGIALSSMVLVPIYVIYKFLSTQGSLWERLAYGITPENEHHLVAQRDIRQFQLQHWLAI
T1 sequence (P31645 whole entry): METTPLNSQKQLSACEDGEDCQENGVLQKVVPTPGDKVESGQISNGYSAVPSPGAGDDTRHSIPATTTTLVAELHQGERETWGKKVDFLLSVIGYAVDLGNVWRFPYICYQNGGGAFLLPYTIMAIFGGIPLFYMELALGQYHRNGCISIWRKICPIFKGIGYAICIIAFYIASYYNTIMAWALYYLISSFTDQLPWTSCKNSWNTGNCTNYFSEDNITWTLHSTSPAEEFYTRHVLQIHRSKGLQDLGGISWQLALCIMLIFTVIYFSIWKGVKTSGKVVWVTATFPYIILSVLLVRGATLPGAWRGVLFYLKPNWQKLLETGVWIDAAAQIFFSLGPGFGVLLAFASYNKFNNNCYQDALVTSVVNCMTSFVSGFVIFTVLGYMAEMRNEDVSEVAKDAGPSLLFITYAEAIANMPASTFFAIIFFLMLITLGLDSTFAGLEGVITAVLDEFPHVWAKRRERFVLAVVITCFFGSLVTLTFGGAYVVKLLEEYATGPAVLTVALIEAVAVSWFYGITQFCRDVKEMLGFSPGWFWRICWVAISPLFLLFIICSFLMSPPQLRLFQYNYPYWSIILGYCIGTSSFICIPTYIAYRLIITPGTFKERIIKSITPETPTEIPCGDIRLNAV

C#Cc1ccc([C@@H]2CN3CCC[C@@H]3c3ccccc32)cc1
Ki [1]: 0.27 nM | Ki [2]: 1.6 nM | Ki [3]: 4.1 nM

c1ccc2cc([C@]34CNCC3C4)ccc2c1 (some centres not stated)
IC50 [4]: 84 nM | IC50 [5]: 38 nM | IC50 [6]: 6 nM

Clc1ccc([C@@H]2CCNC[C@@]23CCOC3)cc1Cl
Ki [7]: 39.8 nM | Ki [8]: 79.4 nM | Ki [9]: 5.01 nM

Clc1ccc(C2CCNCC23CCOCC3)cc1Cl (stereo in doubt; 172)
Ki [7]: 12.6 nM | Ki [8]: 3.98 nM | Ki [9]: 0.316 nM

Clc1ccc(C2CCNCC23CCOCC3)cc1Cl (racemic)
Ki [7]: 20 nM | Ki [8]: 10 nM | Ki [9]: 0.631 nM

CN(C)C[C@]1(c2ccc(Cl)c(Cl)c2)CC[C@@](C)(O)CC1
Tmax [10]: 4 h | IC50 [1]: 34 nM | IC50 [2]: 41 nM | IC50 [11]: 34 nM | IC50 [12]: 41 nM | Kp at 14 day [13]: 0.22 | half-life [14]: 18 h

COC[C@@H]1CN[C@H]2CC[C@]1(c1ccc(Cl)c(Cl)c1)C2
Ki [7]: 5.75 nM | Ki [8]: 1.41 nM | Ki [9]: 2.09 nM

C#Cc1ccc([C@H]2CN3CCC[C@H]3c3ccccc32)cc1
Ki [1]: 15.8 nM | Ki [2]: 74.3 nM | Ki [3]: 227 nM

CN1Cc2cc(-c3ccc(N)nn3)ccc2[C@H](c2ccc3ccccc3c2)C1 [LIAFENSINE]
Occ [15]: 76% | Occ [16]: 86% | inhibition in vivo at 0.3 mg/kg [17]: 77% | IC50 [1]: 1.1 nM | Occ [18]: 19% | IC50 [3]: 8.8 nM | Occ [19]: 28% | Tmax [20]: 5 to 7.2 h | Occ [21]: 19% | half-life [22]: 34 to 57 h | Occ [23]: 82%

Clc1ccc(C2CCNCC23CCOCC3)cc1Cl (stereo in doubt; 171)
Ki [7]: 31.6 nM | Ki [8]: 63.1 nM | Ki [9]: 1.26 nM

CNC[C@H](c1ccc2ccccc2c1)[C@H](O)c1ccccc1
Ki [24]: 61 nM | Ki [25]: 2.1 nM | Ki [26]: 1.5 nM

CNC[C@@H](c1ccc2ccccc2c1)[C@@H](O)c1ccccc1
Kd [24]: 200 nM | Kd [25]: 210 nM | Kd [26]: 42 nM

CC1CCCN(C(=O)CSC[C@H]2CN(C)CC[C@@H]2c2ccc(Cl)cc2)C1 (some centres not stated)
IC50 [27]: 15 nM | IC50 [28]: 84 nM | IC50 [29]: 120 nM

COC[C@@]12CNCC[C@]1(c1ccc(Cl)c(Cl)c1)C2 [GSK1360707]
IC50 [1]: 9.2 nM | IC50 [2]: 8 nM | IC50 [3]: 8.1 nM

COC[C@H]1CN[C@H]2CC[C@]1(c1ccc(Cl)c(Cl)c1)C2
Ki [7]: 1.51 nM | Ki [8]: 0.0794 nM | Ki [9]: 1.26 nM

C[C@]1(O)CC[C@@](CN)(c2ccc(Cl)c(Cl)c2)CC1
IC50 [11]: > 10000 nM | IC50 [12]: 2600 nM

Cc1ccc(C23CNCC2C3)cc1 (configuration not stated) [BICIFADINE]
IC50 [1]: 117 nM | IC50 [2]: 910 nM | IC50 [3]: 55 nM

CN(C)CC(c1ccc(OC(=O)c2ccccc2)cc1)C1(O)CCCCC1 (configuration not stated)
IC50 [30]: 813 nM | IC50 [31]: 105 nM | IC50 [32]: 644 nM

COC[C@H]1[C@@H](c2ccc(Cl)c(Cl)c2)C[C@@H]2CC[C@H]1N2C
Occ [33]: 80% | Occ [34]: 75% | IC50 [1]: 10 nM | IC50 [2]: 10 nM | IC50 [3]: 2 nM | Occ [35]: 55% | Occ [36]: 60%

— ChEMBL document CHEMBL4219032, “Triple Reuptake Inhibitors as Potential Therapeutics for Depression and Other Disorders: Design Paradigm and Developmental Challenges” (J Med Chem, 2018)
